Experimental data: article PMC9329436, “Optimization of the 4-anilinoquin(az)oline scaffold as epidermal growth factor receptor (EGFR) inhibitors for chordoma utilizing a toxicology profiling assay platform” (Scientific Reports, 2022)
Where two headings read alike, the source gives them in different places.

What was measured:
Format in all cases: biochemical
[1] = biological target: 320 wild-type protein kinases (Homo sapiens, UniProt Q13555); conditions: CAMK2G, singlicate
Text: (§1) Table S4. Profiling of two compounds at two concentrations against 320 wild-type protein kinases; singlicate measurement; Residual activities (% of control).

[2] = biological target: 320 wild-type protein kinases (Homo sapiens, UniProt Q9UBS0); conditions: kinase S6K-beta, singlicate
Text: as §1

[3] = biological target: 320 wild-type protein kinases (Homo sapiens, UniProt O00506); conditions: kinase STK25, singlicate
Text: as §1

[4] = biological target: 320 wild-type protein kinases (Homo sapiens, UniProt P07949); conditions: kinase RET, singlicate
Text: as §1

[5] = biological target: 320 wild-type protein kinases (Homo sapiens, UniProt P16234); conditions: PDGFR-alpha, singlicate
Text: as §1

[6] = biological target: 320 wild-type protein kinases (Homo sapiens, UniProt O96013); conditions: singlicate
Text: as §1

[7] = biological target: 320 wild-type protein kinases (Homo sapiens, UniProt Q06187); conditions: BTK, singlicate
Text: as §1

[8] = biological target: T1, 320 wild-type protein kinases (Homo sapiens, UniProt Q9HBY8); conditions: kinase SGK2, singlicate
T1 sequence (Q9HBY8 1-367): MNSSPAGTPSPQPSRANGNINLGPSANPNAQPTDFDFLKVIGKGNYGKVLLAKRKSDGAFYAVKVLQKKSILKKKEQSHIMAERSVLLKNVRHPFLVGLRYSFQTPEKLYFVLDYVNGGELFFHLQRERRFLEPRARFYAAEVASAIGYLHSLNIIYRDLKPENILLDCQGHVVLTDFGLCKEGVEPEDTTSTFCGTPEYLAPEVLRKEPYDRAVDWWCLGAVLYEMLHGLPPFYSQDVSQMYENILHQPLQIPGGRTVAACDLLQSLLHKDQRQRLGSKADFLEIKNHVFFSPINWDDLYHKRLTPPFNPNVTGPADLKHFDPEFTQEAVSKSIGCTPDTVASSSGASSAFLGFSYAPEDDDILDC
Text: as §1

[9] = system: 320 wild-type protein kinases; conditions: singlicate
Text: as §1

[10] = biological target: 320 wild-type protein kinases (Homo sapiens, UniProt P04629); conditions: kinase TRK-A, singlicate
Text: as §1

[11] = biological target: 320 wild-type protein kinases (Homo sapiens, UniProt Q9Y3S1); conditions: kinase WNK2, singlicate
Text: as §1

[12] = biological target: T2, 320 wild-type protein kinases (Homo sapiens, UniProt Q96PY6); conditions: singlicate
T2 sequence (Q96PY6 1-1258): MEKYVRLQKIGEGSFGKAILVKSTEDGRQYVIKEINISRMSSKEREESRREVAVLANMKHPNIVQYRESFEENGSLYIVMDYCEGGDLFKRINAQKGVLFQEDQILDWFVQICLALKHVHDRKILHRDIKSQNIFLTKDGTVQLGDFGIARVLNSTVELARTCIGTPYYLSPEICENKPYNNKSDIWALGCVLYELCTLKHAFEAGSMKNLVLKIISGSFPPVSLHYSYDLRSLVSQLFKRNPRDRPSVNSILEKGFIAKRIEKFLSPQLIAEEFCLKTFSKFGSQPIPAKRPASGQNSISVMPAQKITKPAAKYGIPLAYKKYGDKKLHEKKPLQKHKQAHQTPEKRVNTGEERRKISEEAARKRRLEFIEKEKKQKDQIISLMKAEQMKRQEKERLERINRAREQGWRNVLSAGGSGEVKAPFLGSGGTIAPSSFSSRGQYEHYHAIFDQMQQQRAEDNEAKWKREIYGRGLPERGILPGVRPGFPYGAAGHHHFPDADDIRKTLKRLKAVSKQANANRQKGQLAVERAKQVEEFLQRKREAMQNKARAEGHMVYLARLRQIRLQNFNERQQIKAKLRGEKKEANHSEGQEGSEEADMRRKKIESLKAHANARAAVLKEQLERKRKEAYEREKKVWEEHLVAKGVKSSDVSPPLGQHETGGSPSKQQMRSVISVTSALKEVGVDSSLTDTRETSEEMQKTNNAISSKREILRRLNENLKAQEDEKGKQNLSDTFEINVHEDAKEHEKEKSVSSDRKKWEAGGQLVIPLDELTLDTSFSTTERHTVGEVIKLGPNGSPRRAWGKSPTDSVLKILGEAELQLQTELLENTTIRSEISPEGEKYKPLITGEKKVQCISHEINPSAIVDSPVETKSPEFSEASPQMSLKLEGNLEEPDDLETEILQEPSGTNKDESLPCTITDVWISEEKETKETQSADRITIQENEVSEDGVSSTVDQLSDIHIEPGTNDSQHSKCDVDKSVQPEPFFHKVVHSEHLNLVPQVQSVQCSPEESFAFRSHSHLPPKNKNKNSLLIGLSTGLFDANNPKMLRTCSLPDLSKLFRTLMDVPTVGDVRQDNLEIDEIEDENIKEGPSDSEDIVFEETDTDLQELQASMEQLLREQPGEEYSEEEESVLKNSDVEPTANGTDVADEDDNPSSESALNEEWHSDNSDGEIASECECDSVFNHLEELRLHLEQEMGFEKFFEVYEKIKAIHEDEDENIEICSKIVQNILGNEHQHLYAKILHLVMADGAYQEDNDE
Text: as §1

[13] = biological target: 320 wild-type protein kinases (Homo sapiens, UniProt P49761); conditions: singlicate
Text: as §1

[14] = biological target: 320 wild-type protein kinases (Homo sapiens, UniProt O96017); conditions: singlicate
Text: as §1

Chain of 320 wild-type protein kinases (Homo sapiens, UniProt P04629) (P04629 33-796): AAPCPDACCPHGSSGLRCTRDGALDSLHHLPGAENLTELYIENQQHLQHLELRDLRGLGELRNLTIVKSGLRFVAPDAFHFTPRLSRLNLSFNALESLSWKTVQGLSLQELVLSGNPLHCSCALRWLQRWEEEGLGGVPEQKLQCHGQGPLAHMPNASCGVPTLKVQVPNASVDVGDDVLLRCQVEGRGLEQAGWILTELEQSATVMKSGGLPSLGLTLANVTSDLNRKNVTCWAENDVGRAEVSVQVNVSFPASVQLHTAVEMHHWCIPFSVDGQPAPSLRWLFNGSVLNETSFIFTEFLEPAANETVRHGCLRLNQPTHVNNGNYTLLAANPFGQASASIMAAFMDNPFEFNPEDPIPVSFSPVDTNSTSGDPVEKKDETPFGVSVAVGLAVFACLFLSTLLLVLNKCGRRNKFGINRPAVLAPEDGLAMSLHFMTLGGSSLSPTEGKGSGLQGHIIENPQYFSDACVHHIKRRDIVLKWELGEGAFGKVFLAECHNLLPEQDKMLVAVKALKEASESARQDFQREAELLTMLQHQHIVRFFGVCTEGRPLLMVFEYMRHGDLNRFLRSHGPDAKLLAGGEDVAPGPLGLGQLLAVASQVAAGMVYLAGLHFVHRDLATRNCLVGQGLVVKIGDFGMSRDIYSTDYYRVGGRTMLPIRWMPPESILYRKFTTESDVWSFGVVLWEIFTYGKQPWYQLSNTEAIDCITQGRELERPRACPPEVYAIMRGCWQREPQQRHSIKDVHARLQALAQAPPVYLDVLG
Chain of 320 wild-type protein kinases (Homo sapiens, UniProt Q06187) (Q06187 whole entry): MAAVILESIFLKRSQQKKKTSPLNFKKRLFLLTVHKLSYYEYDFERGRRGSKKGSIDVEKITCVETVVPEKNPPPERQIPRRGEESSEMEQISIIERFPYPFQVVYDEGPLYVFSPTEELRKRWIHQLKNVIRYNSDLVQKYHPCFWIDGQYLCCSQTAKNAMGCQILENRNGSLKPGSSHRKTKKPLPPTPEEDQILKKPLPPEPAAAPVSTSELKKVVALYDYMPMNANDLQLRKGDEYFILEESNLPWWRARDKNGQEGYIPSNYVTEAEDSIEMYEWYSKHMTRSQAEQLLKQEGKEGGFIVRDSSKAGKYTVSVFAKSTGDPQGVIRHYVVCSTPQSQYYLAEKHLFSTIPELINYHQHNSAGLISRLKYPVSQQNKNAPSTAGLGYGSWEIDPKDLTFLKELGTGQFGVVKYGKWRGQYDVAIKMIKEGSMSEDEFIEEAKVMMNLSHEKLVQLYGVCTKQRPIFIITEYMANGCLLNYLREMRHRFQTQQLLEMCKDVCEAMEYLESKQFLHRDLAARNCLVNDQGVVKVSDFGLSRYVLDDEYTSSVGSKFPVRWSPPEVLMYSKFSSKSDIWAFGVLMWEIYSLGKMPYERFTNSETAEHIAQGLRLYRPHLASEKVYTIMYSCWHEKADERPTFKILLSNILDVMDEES
Chain of 320 wild-type protein kinases (Homo sapiens, UniProt Q9Y3S1) (Q9Y3S1 whole entry): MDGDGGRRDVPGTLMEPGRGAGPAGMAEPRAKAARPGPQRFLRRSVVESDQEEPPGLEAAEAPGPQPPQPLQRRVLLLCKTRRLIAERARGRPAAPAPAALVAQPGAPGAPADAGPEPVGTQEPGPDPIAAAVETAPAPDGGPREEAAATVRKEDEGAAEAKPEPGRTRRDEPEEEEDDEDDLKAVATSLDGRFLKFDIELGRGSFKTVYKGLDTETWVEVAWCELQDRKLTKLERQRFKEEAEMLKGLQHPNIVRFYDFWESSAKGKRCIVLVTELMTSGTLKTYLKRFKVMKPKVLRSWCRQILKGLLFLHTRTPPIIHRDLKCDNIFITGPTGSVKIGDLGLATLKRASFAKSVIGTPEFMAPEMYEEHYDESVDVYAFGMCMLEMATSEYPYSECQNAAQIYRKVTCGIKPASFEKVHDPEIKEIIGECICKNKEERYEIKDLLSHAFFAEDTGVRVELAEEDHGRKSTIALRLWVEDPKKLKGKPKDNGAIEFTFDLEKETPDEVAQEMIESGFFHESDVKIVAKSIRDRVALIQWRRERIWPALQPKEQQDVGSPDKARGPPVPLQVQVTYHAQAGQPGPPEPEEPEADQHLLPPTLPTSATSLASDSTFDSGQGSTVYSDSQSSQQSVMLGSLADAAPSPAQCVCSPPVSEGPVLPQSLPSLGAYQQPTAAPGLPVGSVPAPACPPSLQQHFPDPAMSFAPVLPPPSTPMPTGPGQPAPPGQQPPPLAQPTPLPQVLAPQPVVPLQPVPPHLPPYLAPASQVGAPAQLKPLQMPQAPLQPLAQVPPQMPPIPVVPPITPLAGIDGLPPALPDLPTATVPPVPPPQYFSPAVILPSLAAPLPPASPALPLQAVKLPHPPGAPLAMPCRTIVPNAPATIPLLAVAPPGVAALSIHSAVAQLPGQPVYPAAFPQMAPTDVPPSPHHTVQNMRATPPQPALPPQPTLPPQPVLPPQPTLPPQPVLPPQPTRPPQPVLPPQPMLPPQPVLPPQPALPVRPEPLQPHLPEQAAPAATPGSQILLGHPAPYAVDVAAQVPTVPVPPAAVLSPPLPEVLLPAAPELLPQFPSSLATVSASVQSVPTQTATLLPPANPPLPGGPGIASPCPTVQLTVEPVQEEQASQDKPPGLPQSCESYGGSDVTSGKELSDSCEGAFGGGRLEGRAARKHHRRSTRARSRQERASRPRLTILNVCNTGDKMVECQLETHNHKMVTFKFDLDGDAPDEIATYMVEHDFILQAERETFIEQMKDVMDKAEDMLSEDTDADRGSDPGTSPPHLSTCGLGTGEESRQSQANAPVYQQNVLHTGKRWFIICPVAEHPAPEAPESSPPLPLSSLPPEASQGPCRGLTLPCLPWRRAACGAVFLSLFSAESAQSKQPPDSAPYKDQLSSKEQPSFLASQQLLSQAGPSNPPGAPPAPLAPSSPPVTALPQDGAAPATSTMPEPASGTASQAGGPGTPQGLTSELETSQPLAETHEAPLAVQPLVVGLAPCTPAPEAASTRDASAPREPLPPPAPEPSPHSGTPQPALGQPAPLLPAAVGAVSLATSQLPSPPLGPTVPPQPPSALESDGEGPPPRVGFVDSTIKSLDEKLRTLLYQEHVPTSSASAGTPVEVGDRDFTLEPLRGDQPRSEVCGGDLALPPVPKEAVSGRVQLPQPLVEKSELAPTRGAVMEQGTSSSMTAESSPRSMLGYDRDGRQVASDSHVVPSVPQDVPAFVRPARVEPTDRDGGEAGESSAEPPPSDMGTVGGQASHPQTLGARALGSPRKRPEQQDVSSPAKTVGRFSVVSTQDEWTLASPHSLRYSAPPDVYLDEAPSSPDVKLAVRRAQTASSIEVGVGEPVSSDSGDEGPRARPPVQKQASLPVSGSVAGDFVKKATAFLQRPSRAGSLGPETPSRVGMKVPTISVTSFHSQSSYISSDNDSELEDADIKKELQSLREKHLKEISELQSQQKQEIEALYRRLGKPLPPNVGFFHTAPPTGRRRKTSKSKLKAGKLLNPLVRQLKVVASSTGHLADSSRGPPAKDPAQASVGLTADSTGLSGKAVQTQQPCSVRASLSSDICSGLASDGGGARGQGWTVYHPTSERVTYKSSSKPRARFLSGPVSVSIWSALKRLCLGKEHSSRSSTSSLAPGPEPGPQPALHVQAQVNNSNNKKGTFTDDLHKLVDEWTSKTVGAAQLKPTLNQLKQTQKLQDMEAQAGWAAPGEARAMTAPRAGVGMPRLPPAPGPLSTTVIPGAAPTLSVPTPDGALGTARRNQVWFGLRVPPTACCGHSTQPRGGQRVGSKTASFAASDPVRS
Chain of 320 wild-type protein kinases (Homo sapiens, UniProt Q13555) (Q13555 whole entry): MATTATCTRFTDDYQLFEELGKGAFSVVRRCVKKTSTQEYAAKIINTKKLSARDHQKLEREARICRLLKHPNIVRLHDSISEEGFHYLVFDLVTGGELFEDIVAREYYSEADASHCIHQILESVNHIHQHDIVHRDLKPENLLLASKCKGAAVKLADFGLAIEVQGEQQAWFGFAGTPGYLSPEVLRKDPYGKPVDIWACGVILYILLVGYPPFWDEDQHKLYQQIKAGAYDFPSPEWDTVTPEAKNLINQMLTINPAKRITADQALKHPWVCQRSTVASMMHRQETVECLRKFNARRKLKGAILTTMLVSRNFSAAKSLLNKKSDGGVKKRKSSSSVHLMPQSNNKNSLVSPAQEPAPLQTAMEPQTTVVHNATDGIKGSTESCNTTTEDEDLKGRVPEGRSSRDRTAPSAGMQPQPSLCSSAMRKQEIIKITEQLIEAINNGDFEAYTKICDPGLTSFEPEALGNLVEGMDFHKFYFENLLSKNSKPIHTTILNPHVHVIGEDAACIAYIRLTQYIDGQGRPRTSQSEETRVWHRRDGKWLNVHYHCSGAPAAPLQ
Chain of 320 wild-type protein kinases (Homo sapiens, UniProt O96017) (O96017 whole entry): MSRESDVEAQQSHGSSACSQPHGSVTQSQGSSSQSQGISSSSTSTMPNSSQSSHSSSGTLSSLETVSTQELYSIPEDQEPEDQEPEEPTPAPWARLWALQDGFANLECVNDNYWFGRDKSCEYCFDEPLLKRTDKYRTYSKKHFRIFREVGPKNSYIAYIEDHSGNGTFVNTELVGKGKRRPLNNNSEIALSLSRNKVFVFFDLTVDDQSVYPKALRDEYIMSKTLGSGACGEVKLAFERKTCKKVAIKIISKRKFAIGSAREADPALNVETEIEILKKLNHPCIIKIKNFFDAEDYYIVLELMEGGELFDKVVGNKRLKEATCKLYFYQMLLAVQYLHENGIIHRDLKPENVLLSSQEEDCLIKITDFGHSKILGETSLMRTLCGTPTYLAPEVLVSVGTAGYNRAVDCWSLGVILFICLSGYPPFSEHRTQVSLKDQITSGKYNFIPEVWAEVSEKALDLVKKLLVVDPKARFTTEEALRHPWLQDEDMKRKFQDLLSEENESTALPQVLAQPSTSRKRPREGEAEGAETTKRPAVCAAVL

Structure (SMILES): C#Cc1cc(Nc2ncnc3cc(OC)c(OC)cc23)ccc1Cl [Compound 45]
- Residual activity ([1]; 1.0E-06 M): 91 % of control
- Residual activity ([1]; 1.0E-07 M): 116 % of control
- Residual activity, S6K-beta ([2]; assay conc. 1.0E-06 M): 86 % of control
- Residual activity, S6K-beta ([2]; assay conc. 1.0E-07 M): 105 % of control
- Residual activity, STK25 ([3]; assay conc. 1.0E-06 M): 104 % of control
- Residual activity, STK25 ([3]; assay conc. 1.0E-07 M): 111 % of control
- Residual activity, RET ([4]; assay conc. 1.0E-06 M): 51 % of control
- Residual activity, RET ([4]; assay conc. 1.0E-07 M): 101 % of control
- Residual activity ([5]; 1.0E-06 M): 95 % of control
- Residual activity ([5]; 1.0E-07 M): 105 % of control
- Residual activity ([6]; PAK4, 1.0E-06 M): 95 % of control
- Residual activity ([6]; PAK4, 1.0E-07 M): 103 % of control
- Residual activity ([7]; 1.0E-06 M): 65 % of control
- Residual activity ([7]; 1.0E-07 M): 100 % of control
- Residual activity, SGK2 ([8]; assay conc. 1.0E-06 M): 98 % of control
- Residual activity, SGK2 ([8]; assay conc. 1.0E-07 M): 94 % of control
- Residual activity ([9]; PKC-beta2, 1.0E-06 M): 95 % of control
- Residual activity ([9]; PKC-beta2, 1.0E-07 M): 97 % of control
- Residual activity, TRK-A ([10]; assay conc. 1.0E-06 M): 87 % of control
- Residual activity, TRK-A ([10]; assay conc. 1.0E-07 M): 106 % of control
- Residual activity, WNK2 ([11]; assay conc. 1.0E-06 M): 92 % of control
- Residual activity, WNK2 ([11]; assay conc. 1.0E-07 M): 97 % of control
- Residual activity ([12]; NEK1, 1.0E-06 M): 89 % of control
- Residual activity ([12]; NEK1, 1.0E-07 M): 89 % of control
- Residual activity ([13]; CLK3, 1.0E-06 M): 133 % of control
- Residual activity ([13]; CLK3, 1.0E-07 M): 127 % of control
- Residual activity ([14]; CHK2, 1.0E-06 M): 78 % of control
- Residual activity ([14]; CHK2, 1.0E-07 M): 94 % of control

Structure (SMILES): C#Cc1cc(Nc2ncnc3cc(I)ccc23)ccc1Cl [Compound 41]
- Residual activity ([1]; 1.0E-06 M): 93 % of control
- Residual activity ([1]; 1.0E-07 M): 118 % of control
- Residual activity, S6K-beta ([2]; assay conc. 1.0E-06 M): 102 % of control
- Residual activity, S6K-beta ([2]; assay conc. 1.0E-07 M): 96 % of control
- Residual activity, STK25 ([3]; assay conc. 1.0E-06 M): 100 % of control
- Residual activity, STK25 ([3]; assay conc. 1.0E-07 M): 95 % of control
- Residual activity, RET ([4]; assay conc. 1.0E-06 M): 85 % of control
- Residual activity, RET ([4]; assay conc. 1.0E-07 M): 102 % of control
- Residual activity ([5]; 1.0E-06 M): 117 % of control
- Residual activity ([5]; 1.0E-07 M): 118 % of control
- Residual activity ([6]; PAK4, 1.0E-06 M): 82 % of control
- Residual activity ([6]; PAK4, 1.0E-07 M): 103 % of control
- Residual activity ([7]; 1.0E-06 M): 100 % of control
- Residual activity ([7]; 1.0E-07 M): 103 % of control
- Residual activity, SGK2 ([8]; assay conc. 1.0E-06 M): 86 % of control
- Residual activity, SGK2 ([8]; assay conc. 1.0E-07 M): 101 % of control
- Residual activity ([9]; PKC-beta2, 1.0E-06 M): 95 % of control
- Residual activity ([9]; PKC-beta2, 1.0E-07 M): 98 % of control
- Residual activity, TRK-A ([10]; assay conc. 1.0E-06 M): 107 % of control
- Residual activity, TRK-A ([10]; assay conc. 1.0E-07 M): 100 % of control
- Residual activity, WNK2 ([11]; assay conc. 1.0E-06 M): 82 % of control
- Residual activity, WNK2 ([11]; assay conc. 1.0E-07 M): 108 % of control
- Residual activity ([12]; NEK1, 1.0E-06 M): 82 % of control
- Residual activity ([12]; NEK1, 1.0E-07 M): 86 % of control
- Residual activity ([13]; CLK3, 1.0E-06 M): 128 % of control
- Residual activity ([13]; CLK3, 1.0E-07 M): 146 % of control
- Residual activity ([14]; CHK2, 1.0E-06 M): 83 % of control
- Residual activity ([14]; CHK2, 1.0E-07 M): 105 % of control
